This is an account of results in ChEMBL document CHEMBL4145475, “Integration of multi-scale molecular modeling approaches with experiments for the in silico guided design and discovery of novel hERG-Neutral antihypertensive oxazalone and imidazolone derivatives and analysis of their potential restrictive effects on cell proliferation” (Eur J Med Chem, 2018).

Calls of active or inactive are those of the source. No cut-off for these calls is given here. Some results are limits rather than exact numbers.

The subject of data set [1] is NCI-H358. The data set is described as follows: Antimigratory activity against human NCI-H358 cells at 10 uM after 48 hrs by wound-healing assay. It is filed as functional, cell-based.
Data set [2] concerns HUVEC. Kind of data set: Cell cycle arrest in human HUVEC cells assessed as increase in cells at G2/M phase after 24 hrs by propidium iodide staining-based flow cytometric analysis. It is filed as ADME.
Data set [3] relates to NIH3T3. The data set is described as follows: Cytotoxicity against mouse NIH/3T3 cells up to 30 uM after 48 hrs by WST-1 assay. It is filed as cell-based. The conditions noted are these: nih3t3, 48 h. On the technique in general: Formazan colour is commonly taken as a measure of viable cells.
Data set [4] concerns MCF7. The data set is described as follows: Cell cycle arrest in human MCF7 cells assessed as cell death at 50 to 100 uM after 24 hrs by propidium iodide staining-based flow cytometric analysis. It is filed as functional. (In general: Flow cytometry measures light scatter and fluorescence of single cells or particles in a stream.)
Data set [5] deals with HUVEC. Kind of data set: Cell cycle arrest in human HUVEC cells assessed as accumulation of cells with 8N DNA content at 100 uM after 1 to 2 days by propidium iodide staining-based flow cytometric analysis relative to control. Type of data set: ADME.
Data set [6] deals with MCF7. Kind of data set: Cell cycle arrest in human MCF7 cells assessed as accumulation of cells with 8N DNA content at 100 uM after 1 to 2 days by propidium iodide staining-based flow cytometric analysis relative to control. Type of data set: functional.
Data set [7] relates to NIH3T3. Kind of data set: Cytotoxicity against mouse NIH/3T3 cells at 1 to 10 uM after 72 hrs measured during wound-healing assay. It is filed as cell-based. As to conditions: nih3t3, 72 h.
The subject of data set [8] is MCF7. The data set is described as follows: Cell cycle arrest in human MCF7 cells assessed as cell detachment at 50 to 100 uM after 24 hrs by propidium iodide staining-based flow cytometric analysis. Type of data set: functional.
The test system of data set [9] is HUVEC. The data set is described as follows: Cell cycle arrest in human HUVEC cells assessed as cell detachment at 50 to 100 uM after 24 hrs by propidium iodide staining-based flow cytometric analysis. Type of data set: ADME.
Data set [10] relates to MCF7. The data set is described as follows: Cell cycle arrest in human MCF7 cells assessed as decrease in cells at G0/G1 phase after 48 hrs by propidium iodide staining-based flow cytometric analysis. Type of data set: functional.
Data set [11] concerns the target T1, Type-1 angiotensin II receptor (Homo sapiens, UniProt P30556).
T1 sequence (P30556 whole entry): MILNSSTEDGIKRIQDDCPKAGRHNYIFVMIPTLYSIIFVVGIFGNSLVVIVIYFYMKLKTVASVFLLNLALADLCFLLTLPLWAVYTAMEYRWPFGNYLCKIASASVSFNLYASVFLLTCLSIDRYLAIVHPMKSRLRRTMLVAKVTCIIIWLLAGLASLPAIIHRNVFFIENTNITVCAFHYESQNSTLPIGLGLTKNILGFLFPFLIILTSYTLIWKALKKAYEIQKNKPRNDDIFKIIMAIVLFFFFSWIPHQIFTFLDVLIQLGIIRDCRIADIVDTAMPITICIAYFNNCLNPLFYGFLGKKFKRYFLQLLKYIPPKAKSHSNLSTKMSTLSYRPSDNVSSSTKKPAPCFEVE
The data set is described as follows: (§1) Displacement of [125I-Sar1-Ile8]-Ang2 from human angiotensin 2 receptor type 1 receptor expressed in HEK293 cells after 1 hr by gamma counting analysis. Type of data set: cell-based. A general note: In a radioligand displacement assay an active substance lowers the binding of a labelled ligand.

Data set [12] has as its system HUVEC. Kind of data set: Cell cycle arrest in human HUVEC cells assessed as accumulation of cells at subG1 phase at 50 to 100 uM after 24 hrs by propidium iodide staining-based flow cytometric analysis. Type of data set: ADME.
In data set [13] the test system is NIH3T3. Kind of data set: Antimigratory activity against mouse NIH/3T3 cells at 10 uM after 72 hrs by wound-healing assay. It is filed as ADME, cell-based. As to conditions: nih3t3, 72 h.
Data set [14] relates to NCI-H358. Kind of data set: Cytotoxicity against human NCI-H358 cells at 1 to 10 uM after 48 hrs measured during wound-healing assay. Type of data set: cell-based. As to conditions: nci-h358, 48 h.
Data set [15] deals with HUVEC. Kind of data set: Cell cycle arrest in human HUVEC cells assessed as cell death at 50 to 100 uM after 24 hrs by propidium iodide staining-based flow cytometric analysis. Type of data set: ADME.
Data set [16] has as its system A549. Kind of data set: Antimigratory activity against human A549 cells at 10 uM after 72 hrs by wound-healing assay. It is filed as functional, cell-based.
For data set [17], the system named is A549. The data set is described as follows: Cytotoxicity against human A549 cells up to 30 uM after 48 hrs by WST-1 assay. It is filed as cell-based. The conditions noted are these: a549, 48 h.
Data set [18] deals with A549. Kind of data set: Cytotoxicity against human A549 cells at 1 to 10 uM after 72 hrs measured during wound-healing assay. Type of data set: cell-based. As to conditions: a549, 72 h.
The subject of data set [19] is MCF7. Kind of data set: Cell cycle arrest in human MCF7 cells assessed as increase in cells at G2/M phase after 48 hrs by propidium iodide staining-based flow cytometric analysis. Type of data set: functional.
Data set [20] deals with HUVEC. Kind of data set: Cell cycle arrest in human HUVEC cells assessed as decrease in cells at G0/G1 phase after 24 hrs by propidium iodide staining-based flow cytometric analysis. Type of data set: ADME.
In data set [21] the test system is NCI-H358. Kind of data set: Cytotoxicity against human NCI-H358 cells up to 30 uM after 48 hrs by WST-1 assay. It is filed as cell-based. The conditions noted are these: nci-h358, 48 h.
Data set [22] deals with MCF7. The data set is described as follows: Cell cycle arrest in human MCF7 cells assessed as accumulation of cells at subG1 phase at 50 to 100 uM after 24 hrs by propidium iodide staining-based flow cytometric analysis. It is filed as functional.
For data set [23], the target named is T2, Type-1 angiotensin II receptor (Homo sapiens) (UniProt P30556).
T2 sequence (whole entry): T1 sequence (P30556 whole entry)
The description is as §1. It is filed as cell-based.

Broadly, the Ki is the dissociation constant of the complex between target and ligand, obtained from inhibition or displacement. Read a high Ki as weaker binding. Regarding `CCCCC1=N/C(=C\c2ccc(Br)cc2)C(=O)N1Cc1ccc(-c2ccccc2C#N)cc1`, the outcome with NCI-H358 [1], in the data set with MCF7 [4], with MCF7 [8], in the data set on A549 [16] and in the data set on MCF7 [22] was Active. Besides, the Activity result in the data set on HUVEC [2] is listed as “Dose-dependent effect”; in the data set on NIH3T3 [3], “Non-Toxic”; in the data set on HUVEC [5], 90%; in the data set on MCF7 [6], >70%; with NIH3T3 [7] it was “Non-Toxic”; with HUVEC [9], “Toxic”. Further, the Activity result in the data set on MCF7 [10] was “Dose-dependent effect”; in the data set with HUVEC [12] it was “Toxic”; with NIH3T3 [13], “Toxic”; in the data set on NCI-H358 [14], “Non-Toxic”; in the data set with HUVEC [15], “Toxic”; with A549 [17], “Non-Toxic”. For the same molecule, the Activity result is “Non-Toxic” in the data set with A549 [18], “Dose-dependent effect” in the data set on MCF7 [19], “Dose-dependent effect” in the data set with HUVEC [20] and “Non-Toxic” with NCI-H358 [21]. In data set [11], this molecule returned a Ki of 24800 nM.

`CCCCC1=N/C(=C\c2ccccc2Br)C(=O)N1Cc1ccc(-c2ccccc2-c2nnn(C(c3ccccc3)(c3ccccc3)c3ccccc3)n2)cc1`: the Activity entry with NIH3T3 [3] was “Non-Toxic”; in the data set on NIH3T3 [7], “Non-Toxic”; in the data set on NIH3T3 [13], “Toxic”; in the data set on NCI-H358 [14] it was “Non-Toxic”; in the data set with A549 [17] it was “Non-Toxic”; in the data set with A549 [18], “Non-Toxic”. The Activity entry with NCI-H358 [21] is “Non-Toxic”. Affinity in data set [11] was put at a Ki of 317 nM. Besides, the inhibition result in data set [23] is “Dose-dependent effect”. For the same molecule, in the data set with A549 [16], the outcome was Active.

With `CCCCC1=N/C(=C\c2ccc(Cl)cc2)C(=O)N1Cc1ccc(-c2ccccc2-c2nnn(C(c3ccccc3)(c3ccccc3)c3ccccc3)n2)cc1`, the Activity entry in the data set on NIH3T3 [3], in the data set with NIH3T3 [7], with NCI-H358 [14], in the data set on A549 [17], in the data set on A549 [18] and in the data set with NCI-H358 [21] was “Non-Toxic” in each case.

Regarding `CCCCC1=N/C(=C\c2cccc(Cl)c2)C(=O)N1Cc1ccc(-c2ccccc2-c2nnn(C(c3ccccc3)(c3ccccc3)c3ccccc3)n2)cc1`, the Activity entry in the data set on NIH3T3 [3], with NIH3T3 [7], with NCI-H358 [14], in the data set on A549 [17], with A549 [18] and in the data set on NCI-H358 [21] was “Non-Toxic” in each case. For the same molecule, in the data set on A549 [16], the outcome was Active.

The molecule `CCOc1nc2cccc(C(=O)O)c2n1Cc1ccc(-c2ccccc2-c2nnn[nH]2)cc1` had a Ki in data set [11] of 10.4 nM. This lies in the double-digit nanomolar range.

With `CCCCC(=O)N(Cc1ccc(-c2ccccc2-c2nnn[nH]2)cc1)[C@H](C(=O)O)C(C)C`, the outcome in the data set with NCI-H358 [1] and with A549 [16] was Active. In addition, the Activity result in the data set on NIH3T3 [3] is reported as “Non-Toxic”; in the data set with NIH3T3 [13] it was “Toxic”; with A549 [17], “Non-Toxic”; with NCI-H358 [21], “Non-Toxic”.

Turning to `CCCCC1=N/C(=C\c2cccc(Br)c2)C(=O)N1Cc1ccc(-c2ccccc2-c2nnn(C(c3ccccc3)(c3ccccc3)c3ccccc3)n2)cc1`, the outcome in the data set on NCI-H358 [1] and with A549 [16] was Active. Moreover, the Activity result in the data set with NIH3T3 [3], in the data set with NIH3T3 [7], in the data set on NCI-H358 [14], in the data set with A549 [17], in the data set on A549 [18] and in the data set with NCI-H358 [21] was “Non-Toxic” each time.

Turning to `CCCCC1=N/C(=C\c2ccc(Br)cc2)C(=O)N1Cc1ccc(-c2ccccc2-c2nnn(C(c3ccccc3)(c3ccccc3)c3ccccc3)n2)cc1`, the outcome in the data set on NCI-H358 [1] was Active. The Activity entry with NIH3T3 [3], in the data set with NIH3T3 [7], with NCI-H358 [14], in the data set on A549 [17], in the data set with A549 [18] and in the data set with NCI-H358 [21] was “Non-Toxic” each time.
